Experimental data published in ChEMBL document CHEMBL1121575, “Synthesis and biological activity of some 15-oxaestranes” (J Med Chem, 1980).
Values belong to the compound of their own block, whether it stands above or below them.

What was measured:
[1] = biological target: T1, Estrogen receptor (Rattus norvegicus) (UniProt P06211+Q62986); test: Oral estrogenic activity in uterotropic assay in rats at 20-200 ng dose; assay type: functional
[2] = biological target: T1, Estrogen receptor (Rattus norvegicus)
Description: Oral estrogenic activity in uterotropic assay in rats at 100-1000 ng dose

[3] = biological target: T1, Estrogen receptor (Rattus norvegicus); remark: listed apart in the source
Description: Oral estrogenic activity in uterotropic assay in rats at 400-4000ng dose

[4] = biological target: T1, Estrogen receptor (Rattus norvegicus); test: Oral estrogenic activity in uterotropic assay in rats at 40-400 ng dose; assay type: functional
[5] = biological target: T1, Estrogen receptor (Rattus norvegicus); test: Oral estrogenic activity in uterotropic assay in rats at 40-1000 ng dose; assay type: functional

Weight [1]: -7.8 mg
Structure (SMILES): CC12CCC3c4ccc(O)cc4CCC3C1OC[C@@H]2O (stereo not given in full)

Weight [2]: -23.9 mg
Structure (SMILES): C#C[C@]1(O)COC2C3CCc4cc(OC)ccc4C3CCC21C (stereo not given in full)

Weight [3]: -120 mg
Structure (SMILES): C[C@]12CC[C@@H]3c4ccc(O)cc4CC[C@H]3[C@@H]1CCC2=O

Weight [4]: -32.1 mg
Structure (SMILES): CC12CCC3c4ccc(O)cc4CCC3C1OCC2=O (stereo not given)

Weight [5]: -52.2 mg
Structure (SMILES): CC12CCC3c4ccc(OC5CCCC5)cc4CCC3C1OCC2=O (stereo not given)
